# Laboratory results published in patent US11813340B2, “PSMA targeted radiohalogenated urea-polyaminocarboxylates for cancer radiotherapy” (The Johns Hopkins University, priority 2018, dated 2023).
# Like-named read-outs stand apart in the source and are kept apart here.
# Key:
# [1] = system: PSMA+PC3-PIP and PSMA-PC3-flu flank xenografts
# Experimental: Final compounds were purified by HPLC. […] Organs were harvested 1, 4, and 24 h post-injection (n=5 per time point).
# [2] = system: PSMA+PC3-PIP and PSMA-PC3-flu flank xenografts; experiment: Biodistribution of [125I/211At]2 and 3 with and without co-injection of DCIBzL (Example 6); type: in vivo, athymic mice
# Source text: Final compounds were purified by HPLC.
# [3] = 4-hr, Blocker VK-02-90 5.0 nmole
# [4] = 4-hr, Blocker YC-I-27 0.5 nmole
# [5] = 4-hr, Blocker YC-I-27 1.0 nmole
# [6] = 24-hour, Blocker VK-02-90 0.5 nmole
# [7] = 24-hour, Blocker VK-02-90 1.0 nmole
# [8] = 24-hour, Blocker VK-02-90 5.0 nmole
# [9] = 24-hour, Blocker YC-I-27 0.5 nmole
# [10] = 24-hour, Blocker YC-I-27 1.0 nmole
# [11] = 24-hour, Blocker YC-I-27 5 nmole
smiles,measurement,setting,value
O=C([O-])CN1CCN(CC(=O)[O-])CCN(CC(=O)NCCCCC(=O)N(CCCC[C@H](NC(=O)N[C@@H](CCC(=O)O)C(=O)O)C(=O)O)Cc2ccc([125I])cc2)CCN(CC(=O)[O-])CC1.[Lu+3] [[^125I]VK-02-90-Lu],"Biodistribution, Spleen",[1]; [3],0.15 ± 0.08 % injected dose/g
same,"Biodistribution, Stomach",[1]; [3],0.1 ± 0.04 % injected dose/g
same,"Biodistribution, Blood",[1]; [4],0.4 ± 0.06 % injected dose/g
same,"Biodistribution, Flu tumor",[1]; [4],0.3 ± 0.1 % injected dose/g
same,"Biodistribution, Kidneys",[1]; [4],0.9 ± 0.1 % injected dose/g
same,"Biodistribution, Lacrimal glands",[1]; [4],0.2 ± 0.02 % injected dose/g
same,"Biodistribution, PIP tumor",[1]; [4],24.0 ± 3.2 % injected dose/g
same,"Biodistribution, Salivary glands",[1]; [4],3.3 ± 0.8 % injected dose/g
same,"Biodistribution, Spleen",[1]; [4],0.25 ± 0.07 % injected dose/g
same,"Biodistribution, Stomach",[1]; [4],1.3 ± 0.2 % injected dose/g
same,"Biodistribution, Blood",[1]; [5],0.4 ± 0.05 % injected dose/g
same,"Biodistribution, Flu tumor",[1]; [5],0.3 ± 0.1 % injected dose/g
same,"Biodistribution, Kidneys",[1]; [5],0.6 ± 0.03 % injected dose/g
same,"Biodistribution, Lacrimal glands",[1]; [5],0.2 ± 0.03 % injected dose/g
same,"Biodistribution, PIP tumor",[1]; [5],23.8 ± 1.1 % injected dose/g
same,"Biodistribution, Salivary glands",[1]; [5],3.2 ± 0.7 % injected dose/g
same,"Biodistribution, Spleen",[1]; [5],0.2 ± 0.04 % injected dose/g
same,"Biodistribution, Stomach",[1]; [5],1.2 ± 0.2 % injected dose/g
same,"Biodistribution, Blood","[1]; 4-hr, Blocker YC-I-27 5 nmole",0.4 ± 0.1 % injected dose/g
same,"Biodistribution, Flu tumor","[1]; 4-hr, Blocker YC-I-27 5 nmole",0.3 ± 0.1 % injected dose/g
same,"Biodistribution, Kidneys","[1]; 4-hr, Blocker YC-I-27 5 nmole",0.7 ± 0.1 % injected dose/g
same,"Biodistribution, Lacrimal glands","[1]; 4-hr, Blocker YC-I-27 5 nmole",0.5 ± 0.5 % injected dose/g
same,"Biodistribution, Salivary glands","[1]; 4-hr, Blocker YC-I-27 5 nmole",5.0 ± 1.4 % injected dose/g
same,"Biodistribution, Spleen","[1]; 4-hr, Blocker YC-I-27 5 nmole",0.3 ± 0.06 % injected dose/g
same,"Biodistribution, Stomach","[1]; 4-hr, Blocker YC-I-27 5 nmole",1.6 ± 0.4 % injected dose/g
same,"Biodistribution, Blood","[1]; 24-hour, Blocker None",0 % injected dose/g
same,"Biodistribution, Flu tumor","[1]; 24-hour, Blocker None",0.05 ± 0.01 % injected dose/g
same,"Biodistribution, Kidneys","[1]; 24-hour, Blocker None",1.3 ± 0.7 % injected dose/g
same,"Biodistribution, Lacrimal glands","[1]; 24-hour, Blocker None",0.05 ± 0.04 % injected dose/g
same,"Biodistribution, PIP tumor","[1]; 24-hour, Blocker None",18.0 ± 6.0 % injected dose/g
same,"Biodistribution, Salivary glands","[1]; 24-hour, Blocker None",0.2 ± 0.08 % injected dose/g
same,"Biodistribution, Spleen","[1]; 24-hour, Blocker None",0.1 ± 0.05 % injected dose/g
same,"Biodistribution, Stomach","[1]; 24-hour, Blocker None",0.1 ± 0.04 % injected dose/g
same,"Biodistribution, Blood",[1]; [6],0.1 ± 0.01 % injected dose/g
same,"Biodistribution, Flu tumor",[1]; [6],0.04 ± 0.01 % injected dose/g
same,"Biodistribution, Kidneys",[1]; [6],0.5 ± 0.2 % injected dose/g
same,"Biodistribution, Lacrimal glands",[1]; [6],0.03 ± 0.02 % injected dose/g
same,"Biodistribution, PIP tumor",[1]; [6],16.3 ± 4.2 % injected dose/g
same,"Biodistribution, Salivary glands",[1]; [6],0.02 ± 0.01 % injected dose/g
same,"Biodistribution, Spleen",[1]; [6],0.04 ± 0.01 % injected dose/g
same,"Biodistribution, Stomach",[1]; [6],0.04 ± 0.04 % injected dose/g
same,"Biodistribution, Blood",[1]; [7],0 % injected dose/g
same,"Biodistribution, Flu tumor",[1]; [7],0.03 ± 0.01 % injected dose/g
same,"Biodistribution, Kidneys",[1]; [7],0.4 ± 0.1 % injected dose/g
same,"Biodistribution, Lacrimal glands",[1]; [7],0 % injected dose/g
same,"Biodistribution, Salivary glands",[1]; [7],0 % injected dose/g
same,"Biodistribution, Spleen",[1]; [7],0 % injected dose/g
same,"Biodistribution, Stomach",[1]; [7],0.03 ± 0.02 % injected dose/g
same,"Biodistribution, Blood",[1]; [8],0 % injected dose/g
same,"Biodistribution, Flu tumor",[1]; [8],0.02 ± 0.01 % injected dose/g
same,"Biodistribution, Kidneys",[1]; [8],0.2 ± 0.2 % injected dose/g
same,"Biodistribution, Lacrimal glands",[1]; [8],0.01 ± 0.03 % injected dose/g
same,"Biodistribution, Salivary glands",[1]; [8],0.01 ± 0.01 % injected dose/g
same,"Biodistribution, Spleen",[1]; [8],0.01 ± 0.03 % injected dose/g
same,"Biodistribution, Stomach",[1]; [8],0.04 ± 0.03 % injected dose/g
same,"Biodistribution, Blood",[1]; [9],0.03 ± 0.03 % injected dose/g
same,"Biodistribution, Flu tumor",[1]; [9],0.04 ± 0.02 % injected dose/g
same,"Biodistribution, Kidneys",[1]; [9],0.1 ± 0.05 % injected dose/g
same,"Biodistribution, Lacrimal glands",[1]; [9],0.03 ± 0.04 % injected dose/g
same,"Biodistribution, PIP tumor",[1]; [9],13.4 ± 3.8 % injected dose/g
same,"Biodistribution, Salivary glands",[1]; [9],0.6 ± 0.5 % injected dose/g
same,"Biodistribution, Spleen",[1]; [9],0.02 ± 0.02 % injected dose/g
same,"Biodistribution, Stomach",[1]; [9],0.1 ± 0.1 % injected dose/g
same,"Biodistribution, Blood",[1]; [10],0.02 ± 0.01 % injected dose/g
same,"Biodistribution, Flu tumor",[1]; [10],0.03 ± 0.01 % injected dose/g
same,"Biodistribution, Lacrimal glands",[1]; [10],0.02 ± 0.02 % injected dose/g
same,"Biodistribution, Salivary glands",[1]; [10],0.4 ± 0.2 % injected dose/g
same,"Biodistribution, Spleen",[1]; [10],0.04 ± 0.02 % injected dose/g
same,"Biodistribution, Stomach",[1]; [10],0.08 ± 0.03 % injected dose/g
same,"Biodistribution, Blood",[1]; [11],0.02 ± 0.01 % injected dose/g
same,"Biodistribution, Flu tumor",[1]; [11],0.03 ± 0.01 % injected dose/g
same,"Biodistribution, Kidneys",[1]; [11],0.05 ± 0.02 % injected dose/g
same,"Biodistribution, Lacrimal glands",[1]; [11],0.01 ± 0.02 % injected dose/g
same,"Biodistribution, PIP tumor",[1]; [11],6.6 ± 3.2 % injected dose/g
same,"Biodistribution, Salivary glands",[1]; [11],0.4 ± 0.1 % injected dose/g
same,"Biodistribution, Spleen",[1]; [11],0.01 ± 0.03 % injected dose/g
same,"Biodistribution, Stomach",[1]; [11],0.07 ± 0.1 % injected dose/g
same,"retention of radioactivity, lacrimal glands (LG)","[2]; 1h, no co-injection",4.1±1.3 % ID/g
same,"retention of radioactivity, salivary glands (SG)","[2]; 1h, no co-injection",1.0±0.3 % ID/g
same,"retention of radioactivity, kidneys (K)","[2]; 4 h, no co-injection",18.2±4.9 % ID/g
same,"retention of radioactivity, kidneys (K)","[2]; 24 h, no co-injection",3.3±1.1 % ID/g
same,Stomach uptake,[2]; @ 1 h,1.8±0.2 % ID/g
same,"retention, K","[2]; @1 h, co-injection of DCIBzL",4.2±1.3 % ID/g
same,"retention, LG","[2]; @1 h, co-injection of DCIBzL",0.5±0.1 % ID/g
same,"retention, SG","[2]; @1 h, co-injection of DCIBzL",3.2±0.7 % ID/g
same,Stomach uptake,[2]; @ 4 h,0.8±0.5 % ID/g
same,Stomach uptake,[2]; @ 24 h,0.1±0.04 % ID/g
